From ChEMBL document CHEMBL1201862, “PubChem BioAssay data set” (2004)
The source made the active and inactive calls.

How the values were obtained:
[1] = biological target: Cytochrome P450 2C9 (Homo sapiens, UniProt P11712)
[2] = biological target: T1, Short transient receptor potential channel 4 (Mus musculus, UniProt Q9QUQ5); assay: mouse TRPC4 channel activators, dose response, cell-based, HEK293 TRPC4/mu-opioid, Fluo-4 calcium (AID 434937); assay type: functional
T1 sequence (Q9QUQ5 whole entry): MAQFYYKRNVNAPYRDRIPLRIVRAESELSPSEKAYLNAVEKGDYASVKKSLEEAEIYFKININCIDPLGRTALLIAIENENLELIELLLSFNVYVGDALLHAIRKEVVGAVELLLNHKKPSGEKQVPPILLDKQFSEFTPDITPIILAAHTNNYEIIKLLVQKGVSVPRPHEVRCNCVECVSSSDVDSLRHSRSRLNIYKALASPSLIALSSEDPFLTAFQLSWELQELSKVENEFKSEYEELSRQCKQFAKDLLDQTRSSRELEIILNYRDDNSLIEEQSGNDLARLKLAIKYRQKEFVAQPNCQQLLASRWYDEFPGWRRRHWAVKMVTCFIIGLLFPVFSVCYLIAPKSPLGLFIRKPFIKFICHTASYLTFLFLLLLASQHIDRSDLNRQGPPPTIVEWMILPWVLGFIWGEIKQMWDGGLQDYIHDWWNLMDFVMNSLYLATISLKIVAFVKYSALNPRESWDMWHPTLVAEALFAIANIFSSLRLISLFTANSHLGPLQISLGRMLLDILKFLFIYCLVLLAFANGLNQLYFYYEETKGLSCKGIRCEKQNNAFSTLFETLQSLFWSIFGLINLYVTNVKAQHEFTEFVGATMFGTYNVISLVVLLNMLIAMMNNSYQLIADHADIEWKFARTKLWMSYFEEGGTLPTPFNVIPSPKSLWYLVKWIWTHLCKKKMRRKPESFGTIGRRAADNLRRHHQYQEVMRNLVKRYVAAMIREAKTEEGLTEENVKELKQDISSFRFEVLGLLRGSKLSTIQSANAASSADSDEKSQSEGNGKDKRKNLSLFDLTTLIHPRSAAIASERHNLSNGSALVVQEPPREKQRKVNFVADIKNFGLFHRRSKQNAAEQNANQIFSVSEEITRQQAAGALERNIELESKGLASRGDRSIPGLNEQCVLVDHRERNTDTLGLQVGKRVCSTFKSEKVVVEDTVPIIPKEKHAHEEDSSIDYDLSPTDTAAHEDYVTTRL

[3] = off-target signal loss in HeLa-CEM21 co-culture – HeLa F-luc CTL cells, cherry-picked, counter-screen for HIV-1 Env fusion inhibitor project, dose response (AID 652040); assay type: functional, cell-based;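 note: potency for signal decrease marking cytotoxic or nonspecific inhibition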
[4] = CEM21 lymphoblast cell cytotoxicity, dose response, cytotoxicity control for viral fusion inhibitor project, CellTiter-Glo luminescence, cherry-picked (AID 652042); assay type: functional, cell-based;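 note: potency for signal decrease meaning cytotoxicity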
[5] = inhibitors of clade B AD8 Env fusion, dose response, cell-based, cherry-pick (AID 652062); assay type: functional;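 note: luciferase signal from cell-cell fusion driven by HIV-1 clade B AD8 Env; potency is for inhibitors of fusion seen as a drop in luminescence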
[6] = biological target: T2, Protein skinhead-1 (Caenorhabditis elegans, UniProt P34707); assay type: functional
T2 sequence (P34707 whole entry): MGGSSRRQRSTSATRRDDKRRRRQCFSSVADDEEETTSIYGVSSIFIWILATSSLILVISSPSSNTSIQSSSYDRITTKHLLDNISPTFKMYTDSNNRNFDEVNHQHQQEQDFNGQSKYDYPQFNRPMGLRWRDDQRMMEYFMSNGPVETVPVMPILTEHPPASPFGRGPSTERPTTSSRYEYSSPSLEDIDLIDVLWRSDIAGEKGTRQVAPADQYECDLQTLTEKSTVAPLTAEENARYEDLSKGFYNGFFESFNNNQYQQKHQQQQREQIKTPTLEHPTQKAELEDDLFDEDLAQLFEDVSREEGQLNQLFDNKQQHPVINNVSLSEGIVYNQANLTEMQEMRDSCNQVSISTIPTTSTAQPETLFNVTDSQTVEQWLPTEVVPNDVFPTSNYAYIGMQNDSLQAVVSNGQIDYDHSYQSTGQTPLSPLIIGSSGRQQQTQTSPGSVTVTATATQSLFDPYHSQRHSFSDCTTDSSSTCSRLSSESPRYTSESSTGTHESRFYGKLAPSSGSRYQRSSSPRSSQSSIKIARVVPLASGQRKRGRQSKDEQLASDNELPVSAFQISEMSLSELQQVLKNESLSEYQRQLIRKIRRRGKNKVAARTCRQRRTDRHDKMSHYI

[7] = human group III sPLA2 inhibitors, dose response, biochemical, QFRET, IC50 (AID 743457);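 note: green fluorescence rise as the enzyme cleaves BODIPY PC-A2 in liposomes; potency for inhibition of the enzyme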
[8] = biological target: T3, Cytochrome P450 1A2 (Homo sapiens, UniProt P05177);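 note: PubChem cytochrome P450 panel assay, CYP1A2 panel member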
T3 sequence (P05177 whole entry): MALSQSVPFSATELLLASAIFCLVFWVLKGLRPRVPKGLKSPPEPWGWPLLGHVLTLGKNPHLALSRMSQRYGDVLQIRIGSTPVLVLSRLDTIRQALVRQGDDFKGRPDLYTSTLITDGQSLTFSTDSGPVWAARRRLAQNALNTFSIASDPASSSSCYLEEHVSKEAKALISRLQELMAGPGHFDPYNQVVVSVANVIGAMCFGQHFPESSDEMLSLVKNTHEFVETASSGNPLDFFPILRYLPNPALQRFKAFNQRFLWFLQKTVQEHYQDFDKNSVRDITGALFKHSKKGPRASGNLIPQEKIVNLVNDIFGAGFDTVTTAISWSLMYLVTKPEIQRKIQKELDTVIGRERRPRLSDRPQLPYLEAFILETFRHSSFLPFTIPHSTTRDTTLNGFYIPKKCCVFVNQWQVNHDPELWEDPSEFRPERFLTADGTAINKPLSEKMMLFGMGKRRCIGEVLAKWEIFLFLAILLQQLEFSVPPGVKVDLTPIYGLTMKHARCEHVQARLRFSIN

[9] = Shn3 3'UTR reporter inhibitors, dose response, cell-based, Clone20 osteoblasts, firefly luciferase, cherry-picked (AID 624132); assay type: functional;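 note: firefly luciferase luminescence from reporter carrying the Shn3 3'UTR in osteoblasts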
[10] = HepG2 cell cytotoxicity, dose response, cytotoxicity control for Shn3 inhibitor project, CellTiter-Glo, cherry-picked (AID 624134); assay type: functional, cell-based
[11] = ZM109 Env clade C HIV-1 fusion inhibitors, dose response, HeLa effector, CEM target cells, luciferase, cherry-pick (AID 652058); assay type: functional, cell-based
[12] = inhibitors of HIV Env-driven cell fusion, dose response, cherry-pick (AID 652057); assay type: functional, cell-based
[13] = control 3'UTR Renilla luciferase suppression, dose response, counter-screen for Shn3 inhibitor project, cell-based, Clone20-Shn3RL, cherry-picked (AID 624133); assay type: functional
[14] = cytotoxicity in HEK-293T cells, dose response, cytotoxicity control for TCR NF-kB inhibitor project, luminescence, T-cell screen hits (AID 489026); assay type: functional, cell-based;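 note: cells exposed to compound about 14 hours before the viability readout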
[15] = biological target: Fatty acid synthase (Homo sapiens, UniProt P49327); assay: FAS thioesterase domain inhibitors, dose response, biochemical, kinetic fluorescence intensity (AID 624326); assay type: functional;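 note: rate of fluorescence rise from hydrolysis of a fluorogenic O-methyl fluorescein ester substrate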
[16] = biological target: Cytochrome P450 2C19 (Homo sapiens, UniProt P33261); assay: Cytochrome panel assay with activity outcomes. Panel member name: p450-cyp2c19 Compounds with AC50 equal or less than 10 uM are considered active; assay type: functional; conditions: read-out: AC50
[17] = cells; assay type: functional, cell-based
[18] = biological target: T4, DNA repair protein RAD52 homolog (Homo sapiens, UniProt P43351); assay type: functional, biochemical
T4 sequence (P43351 whole entry): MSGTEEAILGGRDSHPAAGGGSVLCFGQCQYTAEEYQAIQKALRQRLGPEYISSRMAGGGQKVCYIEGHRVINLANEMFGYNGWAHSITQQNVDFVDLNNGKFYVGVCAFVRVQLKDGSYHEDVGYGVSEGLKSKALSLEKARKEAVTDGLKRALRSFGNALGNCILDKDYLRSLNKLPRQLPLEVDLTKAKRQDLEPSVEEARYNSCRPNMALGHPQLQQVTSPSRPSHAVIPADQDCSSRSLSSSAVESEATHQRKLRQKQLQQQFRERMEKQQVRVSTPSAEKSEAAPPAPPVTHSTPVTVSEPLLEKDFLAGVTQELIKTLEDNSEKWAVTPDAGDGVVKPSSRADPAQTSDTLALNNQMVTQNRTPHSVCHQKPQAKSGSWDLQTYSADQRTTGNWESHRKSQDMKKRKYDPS

[19] = cells; assay type: functional, cell-based; remark: listed apart in the source
[20] = biological target: T5, Ubiquitin-conjugating enzyme E2 N (Homo sapiens, UniProt P61088); assay type: functional;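 note: Dose-response confirmation in a TR-FRET assay detecting UBC13-driven polyubiquitin chain formation, inhibition measured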
T5 sequence (P61088 whole entry): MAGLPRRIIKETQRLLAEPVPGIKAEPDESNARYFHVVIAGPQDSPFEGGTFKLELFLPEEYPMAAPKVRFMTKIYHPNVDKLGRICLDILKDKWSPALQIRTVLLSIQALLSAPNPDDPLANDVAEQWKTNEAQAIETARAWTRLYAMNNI

[21] = NIH-3T3 fibroblast cytotoxicity, dose response, cytotoxicity control, cell-based, fluorescence, Alamar Blue, secondary assay (AID 2327); assay type: functional;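 note: NIH-3T3 mouse fibroblasts cultured with fluconazole at 8 µg/mL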
[22] = biological target: Paired box protein Pax-8 (Homo sapiens, UniProt Q06710); assay: inhibitors of PAX8-driven TPO luciferase reporter, dose response, RMG-I cells, cherry-pick (AID 687027); assay type: functional, cell-based;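 note: luciferase reporter driven by Pax8 target thyroperoxidase promoter measured by SteadyGlo luminescence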
[23] = test system: INS1; assay: beta cell apoptosis inhibitors, cytokine rescue, dose response, luminescence, retest (AID 449756); assay type: functional, cell-based; conditions: Rattus norvegicus;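 note: cell death triggered by IL-1 beta plus TNF-alpha plus IFN-gamma mixture; protective hits raise ATP signal compared with cytokine alone wells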
[24] = cytotoxicity toward NIH3T3 fibroblasts, dose response, counter-screen, cell-based, ATP luminescence, mouse fibroblasts (AID 2010); assay type: functional;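 note: cells exposed to compound for about 90 hours before reading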
[25] = inhibitors of intracellular T. cruzi replication, confirmation, NIH3T3 host cells, beta-gal luminescence (AID 2044); assay type: functional, cell-based;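 note: intracellular parasites grown in NIH/3T3 mouse fibroblasts as host cells; luminescent beta-galactosidase reporter signal from transgenic T. cruzi replicating inside host cells; inhibitors lower the luminescence signal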

Chain of Cytochrome P450 2C9 (P11712 whole entry): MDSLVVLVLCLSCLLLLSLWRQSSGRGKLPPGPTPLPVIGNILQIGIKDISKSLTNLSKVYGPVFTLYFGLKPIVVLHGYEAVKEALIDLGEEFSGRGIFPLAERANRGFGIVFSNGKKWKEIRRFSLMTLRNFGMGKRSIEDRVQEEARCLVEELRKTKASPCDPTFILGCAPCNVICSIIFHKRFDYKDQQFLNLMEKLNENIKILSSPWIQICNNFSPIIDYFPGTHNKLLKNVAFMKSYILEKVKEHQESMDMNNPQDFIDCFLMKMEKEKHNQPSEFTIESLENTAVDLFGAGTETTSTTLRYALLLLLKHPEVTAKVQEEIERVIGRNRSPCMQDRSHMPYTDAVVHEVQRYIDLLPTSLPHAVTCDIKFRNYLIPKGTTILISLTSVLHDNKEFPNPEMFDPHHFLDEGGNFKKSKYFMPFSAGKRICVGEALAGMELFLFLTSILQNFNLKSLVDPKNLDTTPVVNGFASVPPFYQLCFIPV
Chain of Paired box protein Pax-8 (Q06710 whole entry): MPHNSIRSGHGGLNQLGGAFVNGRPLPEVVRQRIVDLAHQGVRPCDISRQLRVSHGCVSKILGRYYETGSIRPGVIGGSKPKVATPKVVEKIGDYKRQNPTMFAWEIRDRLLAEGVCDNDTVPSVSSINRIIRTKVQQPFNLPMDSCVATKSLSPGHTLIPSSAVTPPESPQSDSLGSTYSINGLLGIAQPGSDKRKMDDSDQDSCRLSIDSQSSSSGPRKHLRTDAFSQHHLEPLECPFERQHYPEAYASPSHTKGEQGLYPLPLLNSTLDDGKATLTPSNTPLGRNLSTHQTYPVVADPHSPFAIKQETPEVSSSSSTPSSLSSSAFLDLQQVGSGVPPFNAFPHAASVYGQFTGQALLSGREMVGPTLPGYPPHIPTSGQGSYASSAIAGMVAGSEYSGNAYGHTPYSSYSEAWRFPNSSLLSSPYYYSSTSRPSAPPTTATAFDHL
Chain of Cytochrome P450 2C19 (P33261 whole entry): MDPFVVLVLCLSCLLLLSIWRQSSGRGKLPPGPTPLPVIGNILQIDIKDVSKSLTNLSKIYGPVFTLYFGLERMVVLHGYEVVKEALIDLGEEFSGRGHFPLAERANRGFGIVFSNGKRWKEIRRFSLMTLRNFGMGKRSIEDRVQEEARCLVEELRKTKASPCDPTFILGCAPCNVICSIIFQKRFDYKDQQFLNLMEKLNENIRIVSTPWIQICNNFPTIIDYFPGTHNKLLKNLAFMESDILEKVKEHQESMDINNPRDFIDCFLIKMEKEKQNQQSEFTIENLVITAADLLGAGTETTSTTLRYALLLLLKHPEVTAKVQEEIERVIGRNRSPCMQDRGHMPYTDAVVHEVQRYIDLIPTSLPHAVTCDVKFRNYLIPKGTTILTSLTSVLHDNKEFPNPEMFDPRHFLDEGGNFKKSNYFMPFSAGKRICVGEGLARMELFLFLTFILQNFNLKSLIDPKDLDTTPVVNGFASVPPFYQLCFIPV
Chain of Fatty acid synthase (P49327 whole entry, the tested form may be a part): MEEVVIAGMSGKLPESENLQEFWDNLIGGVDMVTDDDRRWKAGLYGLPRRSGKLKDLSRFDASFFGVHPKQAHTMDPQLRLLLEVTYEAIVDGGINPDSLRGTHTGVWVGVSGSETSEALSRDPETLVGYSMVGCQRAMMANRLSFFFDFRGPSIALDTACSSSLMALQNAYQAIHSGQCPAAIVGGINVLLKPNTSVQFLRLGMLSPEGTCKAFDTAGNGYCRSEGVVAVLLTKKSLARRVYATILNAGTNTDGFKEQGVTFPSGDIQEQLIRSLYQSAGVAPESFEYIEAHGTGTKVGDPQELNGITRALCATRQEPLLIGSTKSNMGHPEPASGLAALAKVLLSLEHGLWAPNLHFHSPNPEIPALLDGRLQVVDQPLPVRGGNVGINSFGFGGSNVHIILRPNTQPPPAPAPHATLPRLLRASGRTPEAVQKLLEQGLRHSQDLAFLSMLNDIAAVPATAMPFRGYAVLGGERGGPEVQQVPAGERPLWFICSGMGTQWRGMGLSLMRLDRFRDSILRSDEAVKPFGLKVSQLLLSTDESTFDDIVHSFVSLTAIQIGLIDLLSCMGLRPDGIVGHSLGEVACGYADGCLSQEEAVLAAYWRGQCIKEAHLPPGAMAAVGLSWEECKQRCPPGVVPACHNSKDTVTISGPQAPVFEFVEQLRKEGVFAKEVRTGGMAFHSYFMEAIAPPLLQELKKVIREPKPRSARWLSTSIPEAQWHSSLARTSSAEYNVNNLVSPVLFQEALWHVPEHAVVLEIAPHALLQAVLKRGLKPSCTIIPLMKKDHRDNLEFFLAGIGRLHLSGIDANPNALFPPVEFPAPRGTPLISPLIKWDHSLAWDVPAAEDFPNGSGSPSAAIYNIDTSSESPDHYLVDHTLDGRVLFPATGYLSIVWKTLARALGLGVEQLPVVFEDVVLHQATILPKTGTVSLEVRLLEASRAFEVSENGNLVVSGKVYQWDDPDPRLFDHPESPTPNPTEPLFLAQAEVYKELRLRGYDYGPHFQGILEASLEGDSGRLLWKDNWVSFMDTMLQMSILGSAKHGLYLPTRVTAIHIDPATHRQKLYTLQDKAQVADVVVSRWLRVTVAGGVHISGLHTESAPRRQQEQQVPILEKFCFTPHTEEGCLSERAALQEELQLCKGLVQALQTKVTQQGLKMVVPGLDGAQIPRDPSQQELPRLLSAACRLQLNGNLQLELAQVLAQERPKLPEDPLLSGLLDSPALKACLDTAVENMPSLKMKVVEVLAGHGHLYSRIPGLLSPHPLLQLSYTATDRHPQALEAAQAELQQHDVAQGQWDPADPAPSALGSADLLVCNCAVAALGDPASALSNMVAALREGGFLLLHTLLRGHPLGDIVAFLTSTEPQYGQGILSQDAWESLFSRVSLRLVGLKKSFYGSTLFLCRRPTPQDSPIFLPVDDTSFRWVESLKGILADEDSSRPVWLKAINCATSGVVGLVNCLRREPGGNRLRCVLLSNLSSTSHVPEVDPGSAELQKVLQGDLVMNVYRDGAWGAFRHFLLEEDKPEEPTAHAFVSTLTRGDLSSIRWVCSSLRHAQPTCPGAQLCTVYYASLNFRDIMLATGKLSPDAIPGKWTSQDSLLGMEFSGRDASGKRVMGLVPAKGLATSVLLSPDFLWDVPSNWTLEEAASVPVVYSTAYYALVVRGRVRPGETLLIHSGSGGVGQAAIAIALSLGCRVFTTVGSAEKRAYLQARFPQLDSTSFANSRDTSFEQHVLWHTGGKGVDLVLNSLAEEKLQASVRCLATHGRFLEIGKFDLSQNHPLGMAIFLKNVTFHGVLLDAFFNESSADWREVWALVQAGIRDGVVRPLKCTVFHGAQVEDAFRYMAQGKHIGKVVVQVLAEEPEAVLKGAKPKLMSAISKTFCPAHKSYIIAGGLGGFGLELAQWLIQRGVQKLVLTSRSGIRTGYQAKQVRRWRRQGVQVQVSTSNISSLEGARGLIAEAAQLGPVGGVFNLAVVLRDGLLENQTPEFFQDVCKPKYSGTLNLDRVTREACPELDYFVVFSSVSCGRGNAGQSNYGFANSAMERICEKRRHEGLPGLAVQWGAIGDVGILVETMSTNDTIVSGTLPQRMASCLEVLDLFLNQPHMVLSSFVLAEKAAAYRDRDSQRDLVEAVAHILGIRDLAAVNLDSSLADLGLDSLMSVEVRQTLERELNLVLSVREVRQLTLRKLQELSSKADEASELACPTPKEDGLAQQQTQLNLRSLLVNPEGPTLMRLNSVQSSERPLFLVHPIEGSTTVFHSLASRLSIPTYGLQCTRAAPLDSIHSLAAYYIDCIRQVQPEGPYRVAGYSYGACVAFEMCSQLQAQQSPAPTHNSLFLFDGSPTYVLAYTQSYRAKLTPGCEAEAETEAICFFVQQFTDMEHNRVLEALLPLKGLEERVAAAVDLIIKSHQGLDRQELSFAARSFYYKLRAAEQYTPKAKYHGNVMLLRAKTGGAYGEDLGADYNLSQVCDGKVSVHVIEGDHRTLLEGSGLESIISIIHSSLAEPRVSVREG

Compound: O=C(Nc1ccccc1)c1cc(-c2ccccc2Cl)no1
- AC50 [1]: inconclusive

Compound: CC1(C)CC(CCNCc2ccc3c(c2)OCO3)(Cc2ccccc2)CCO1 (stereo not given)
- EC50 [2]: 6.68 µM (active)

Compound: CCN(CC)S(=O)(=O)c1cccc(NC(=O)c2ccc(-n3nc(C)cc3C)cc2)c1
- AC50 [3]: 10.7 µM (active)
- AC50 [4]: 49.7 µM (active)
- AC50 [5]: 15.8 µM (active)

Compound: O=C(CCS(=O)(=O)c1cccc2nsnc12)N1CCN(c2ccccc2F)CC1
- IC50 [6]: > 100 µM (inactive)

Compound: Cc1ccc(C(=O)NC(=S)Nc2ccccc2C(F)(F)F)c(C)c1
- IC50 [6]: > 100 µM (inactive)

Compound: Sc1nnc(-c2ccc(Cl)cc2Cl)n1Cc1ccccc1
- IC50 [7]: > 122 µM (inactive)

Compound: COc1ccccc1N=C(S)NNC(=O)c1nn(C)c(C)c1Cl
- IC50 [7]: > 122 µM (inactive)

Compound: CN1CCN(c2ccc(NC(=O)COc3cccc4ccccc34)cc2)CC1
- EC50 [2]: 2.99 µM (active)

Compound: NCCNC(=O)c1c(NC(=O)c2ccccc2)sc2c1CCCC2
- EC50 [2]: 6.68 µM (active)

Compound: CCCC(=O)N1CCN(c2ccc(NC(=O)c3cc4ccccc4o3)cc2)CC1
- IC50 [6]: > 100 µM (inactive)

Compound: CC(C)CCN1CC(C(=O)N2CCN(c3ccc(F)cc3)CC2)CC1=O (stereo not given)
- AC50 [8]: 0.251 µM (inconclusive)
- AC50 [1]: inconclusive

Compound: O=C(Nc1ccc(N2CCN(C(=O)c3ccc(Cl)cc3)CC2)cc1)c1ccc2c(c1)OCCO2
- AC50 [9]: 2.54 µM (active)
- AC50 [4]: 47.7 µM (active)
- AC50 [10]: 1.96 µM (active)
- AC50 [11]: 0.791 µM (active)
- AC50 [12]: 32.5 µM (active)
- AC50 [5]: 6.8 µM (active)
- AC50 [13]: 7.89 µM (active)
- IC50 [14]: > 80 µM (inactive)

Compound: CCn1nccc1C(=O)Nc1ccc(Cl)c(Cl)c1
- IC50 [6]: 43.4 µM (active)

Compound: CCCN(CCC)CCCNC(=O)C1CCC(CNS(=O)(=O)c2cccc3nsnc23)CC1 (stereo not given)
- EC50 [2]: 0.531 µM (active)

Compound: O=C(C[C@H]1C[C@H](C(=O)N2CCOCC2)[C@@]2(CCC3CCCC3)c3[nH]c4cc(-c5ccco5)ccc4c3CCN2C1=O)NCCc1ccccn1
- IC50 [15]: 7.01 µM (active)

Compound: COc1ccc(CCC(=O)NN=C(S)Nc2cccc(C(C)=O)c2)cc1
- IC50 [7]: > 122 µM (inactive)

Compound: COCCCNC(=O)/C=C/c1cccc(Cl)c1
- AC50 [16]: 15.8 µM (inconclusive)
- AC50 [1]: inconclusive

Compound: CCOC(=O)c1c(-c2ccccc2)oc2ccc(OCC(O)CN(C)C)cc12 (stereo not given)
- EC50 [17]: > 350 µM (not active)
- AC50 [18]: 15.5 µM (active)
- EC50 [19]: 21.7 µM (active)
- IC50 [20]: > 20 µM (inactive)
- EC50 [21]: 10 µM (inconclusive)

Compound: COC(=O)C12OCC34C(CC5C(C)=C(O)C(=O)CC5(C)C3C(O)C1O)OC(=O)C(OC(=O)/C=C(\C)C(C)C)C24 (stereo not given)
- AC50 [9]: < 0.26 µM (active)
- IC50 [6]: 42.7 µM (active)
- AC50 [13]: < 0.26 µM (active)
- AC50 [22]: < 0.26 µM (active)

Compound: Cc1ccc(F)cc1-c1cc2nc(NCCCN(C)C)n(C)c(=O)c2s1
- AC50 [18]: 19.2 µM (active)

Compound: C[C@H]1CN([C@@H](C)CO)C(=O)Cc2cc(NC(=O)Nc3cccc4ccccc34)ccc2O[C@H]1CN(C)S(=O)(=O)c1ccccc1
- AC50 [4]: 33.8 µM (active)
- AC50 [11]: < 0.26 µM (active)
- AC50 [12]: < 0.26 µM (active)
- AC50 [5]: 1.07 µM (active)

Compound: C[C@H](CO)N1C[C@H](C)[C@H](CN(C)S(=O)(=O)c2cccc(C#N)c2)OCc2ccccc2-c2c(n(C)c3ccccc23)C1=O
- AC50 [4]: 46.1 µM (active)
- AC50 [11]: 3.13 µM (active)
- AC50 [12]: 0.726 µM (active)
- AC50 [5]: 10.3 µM (active)

Compound: OC1CC2CCC(C1)N2CCCN1c2ccccc2Sc2ccc(Cl)cc21 (stereo not given)
- AC50 [18]: 12.9 µM (active)

Compound: COc1ccc(/C(C)=N/NC(=O)c2cccc(S(=O)(=O)N3CCCC3)c2)c(O)c1
- AC50 [23]: 0.631 µM (active)
- EC50 [17]: 11.6 µM (active)
- EC50 [24]: 3.07 µM (active)
- EC50 [19]: > 350 µM (not active)
- AC50 [4]: 3.55 µM (active)
- EC50 [25]: 1.05 µM (active)
- AC50 [5]: 17.4 µM (active)

Compound: N=C(N)Nc1ccc2[nH]c3c(c2c1)C[C@@]1(O)[C@H]2Cc4ccc(O)c5c4[C@@]1(CCN2CC1CC1)[C@H]3O5
- AC50 [18]: 8.43 µM (active)
